Results on 29 compounds are retold here after patent publication US8822503B2, “2-pyridone compounds” (Taisho Pharmaceutical Co., Ltd, priority 2009, dated 2014).

The test has as its target T1, human liver GK (Homo sapiens, UniProt P35557).
T1 construct: GST (glutathione S-transferase) (N); made in house; host or cells: E. coli
T1 sequence (P35557 1-466 isoform P35557-2): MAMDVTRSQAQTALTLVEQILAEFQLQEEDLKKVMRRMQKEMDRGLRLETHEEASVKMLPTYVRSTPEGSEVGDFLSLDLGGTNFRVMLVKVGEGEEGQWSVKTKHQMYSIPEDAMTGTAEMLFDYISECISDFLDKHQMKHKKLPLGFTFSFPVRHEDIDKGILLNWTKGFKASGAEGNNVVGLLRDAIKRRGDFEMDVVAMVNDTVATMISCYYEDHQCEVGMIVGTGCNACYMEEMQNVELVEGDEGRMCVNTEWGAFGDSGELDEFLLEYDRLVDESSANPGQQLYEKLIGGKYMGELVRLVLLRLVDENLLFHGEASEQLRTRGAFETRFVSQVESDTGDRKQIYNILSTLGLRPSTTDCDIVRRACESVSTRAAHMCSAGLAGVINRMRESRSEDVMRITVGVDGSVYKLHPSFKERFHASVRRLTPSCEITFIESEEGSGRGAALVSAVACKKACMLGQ
Nature of the test: GK activation test. Format: biochemical. Particulars: test compound concentration needed to activate 50% of maximum activation ability; 4 mM 14C-labeled glucose, 2 mM ATP, room temperature, 20 minutes. Put shortly:
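GST-tagged human liver GK from E. coli (0.24 μg/well) with 4 mM 14C-glucose, 2 mM ATP in Hepes-KOH pH 7.1, KCl, MgCl2, DTT, 1% DMSO, 20 min room temperature. Labeled glucose 6-phosphate captured on anion resin, eluted and counted. EC50 = concentration giving half of maximal activation.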

Turning to `CSc1ccc(/C(=C\CC2CCOC2)c2ccc(C3CC3)c(=O)[nH]2)cc1` (centres unmarked) [Example 1-49, 3-Cyclopropyl-6-{(1E)-1-[4-(methylsulfanyl)phenyl]-3-(tetrahydrofuran-3-yl)prop-1-en-1-yl}pyridin-2(1H)-one], the EC50 (as a rule, the concentration at which the effect is half-maximal) fell in the range of 500 to 3000 nM.

`COc1ccc(/C(=C\CC2CCCO2)c2ccc(C3CC3)c(=O)[nH]2)cc1Cl` (centres unmarked) [Example 1-50, 6-[(1E)-1-(3-Chloro-4-methoxyphenyl)-3-(tetrahydrofuran-2-yl)prop-1-en-1-yl]-3-cyclopropylpyridin-2(1H)-one]: the EC50 is 500 to 3000 nM.

For the compound `COc1ccc(/C(=C\C2CCOCC2)c2ccc(C3CC3)c(=O)[nH]2)cc1` [Example 1-51, 3-Cyclopropyl-6-[(E)-1-(4-methoxyphenyl)-2-(tetrahydro-2H-pyran-4-yl)ethenyl]pyridin-2(1H)-one], the EC50 was 500 to 3000 nM. To `CCOc1ccc(/C(=C\C2CCOCC2)c2ccc(C3CC3)c(=O)[nH]2)cc1` [Example 1-52, 3-Cyclopropyl-6-[(E)-1-(4-ethoxyphenyl)-2-(tetrahydro-2H-pyran-4-yl)ethenyl]pyridin-2(1H)-one] belongs 500 to 3000 nM.

Take `COc1ccc(/C(=C\C2CCOCC2)c2ccc(C3CC3)c(=O)[nH]2)cc1Cl` [Example 1-53, 6-[(E)-1-(3-Chloro-4-methoxyphenyl)-2-(tetrahydro-2H-pyran-4-yl)ethenyl]-3-cyclopropylpyridin-2(1H)-one]: the EC50 is 500 to 3000 nM. For the compound `COc1ccc(/C(=C\C2CCOCC2)c2ccc(C(F)(F)F)c(=O)[nH]2)cc1Cl` [Example 1-54, 6-[(E)-1-(3-Chloro-4-methoxyphenyl)-2-(tetrahydro-2H-pyran-4-yl)ethenyl]-3-(trifluoromethyl)pyridin-2(1H)-one], the EC50 was 500 to 3000 nM. The figure for `CSc1ccc(/C(=C\C2CCOCC2)c2ccc(C)c(=O)[nH]2)cc1Cl` [Example 1-55, 6-[(E)-1-[3-Chloro-4-(methylsulfanyl)phenyl]-2-(tetrahydro-2H-pyran-4-yl)ethenyl]-3-methylpyridin-2(1H)-one] is 500 to 3000 nM; for `Cc1ccc(/C(=C/C2CCOCC2)c2ccc(S(C)(=O)=O)c(Cl)c2)[nH]c1=O` [Example 1-56, 6-{(E)-1-[3-Chloro-4-(methylsulfonyl)phenyl]-2-(tetrahydro-2H-pyran-4-yl)ethenyl}-3-methylpyridin-2(1H)-one] it is 500 to 3000 nM; for `CCN(CC)CCCOc1ccc(/C(=C\C2CCOCC2)c2ccc(C3CC3)c(=O)[nH]2)cc1Cl` [Example 1-57, 6-[(E)-1-{3-Chloro-4-[3-(diethylamino)propoxy]phenyl}-2-(tetrahydro-2H-pyran-4-yl)ethenyl]-3-cyclopropylpyridin-2(1H)-one] it is 500 to 3000 nM. To `CCc1ccc(/C(=C\[C@H]2CCC(=O)C2)c2ccc(C3CC3)c(=O)[nH]2)cc1` [Example 1-58, 3-Cyclopropyl-6-{(E)-1-(4-ethylphenyl)-2-[(1S)-3-oxocyclopentyl]ethenyl}pyridin-2(1H)-one] belongs 10 to 500 nM; to `CCOc1ccc(/C(=C\[C@H]2CCC(=O)C2)c2ccc(CC)c(=O)[nH]2)cc1Cl` [Example 1-59, 6-{(E)-1-(3-Chloro-4-ethoxyphenyl)-2-[(1S)-3-oxocyclopentyl]ethenyl}-3-ethylpyridin-2(1H)-one], 10 to 500 nM; to `Cc1ccc(/C(=C/[C@H]2CCC(=O)C2)c2ccc(SC3CC3)cc2)[nH]c1=O` [Example 1-60, 6-{(E)-1-[4-(Cyclopropylsulfanyl)phenyl]-2-[(1S)-3-oxocyclopentyl]ethenyl}-3-methylpyridin-2(1H)-one], 10 to 500 nM. The figure for `Cc1ccc(/C(=C/[C@H]2CCC(=O)C2)c2ccc(S(=O)(=O)C3CC3)cc2)[nH]c1=O` [Example 1-61, 6-{(E)-1-[4-(Cyclopropylsulfonyl)phenyl]-2-[(1S)-3-oxocyclopentyl]ethenyl}-3-methylpyridin-2(1H)-one] is 10 to 500 nM. With `CCc1ccc(/C(=C/[C@H]2CCC(=O)C2)c2ccc(S(=O)(=O)C3CC3)cc2)[nH]c1=O` [Example 1-62, 6-{(E)-1-[4-(Cyclopropylsulfonyl)phenyl]-2-[(1S)-3-oxocyclopentyl]ethenyl}-3-ethylpyridin-2(1H)-one], the EC50 lay in the range of 10 to 500 nM. In turn, `O=C1CC[C@H](/C=C(\c2ccc(S(=O)(=O)C3CC3)cc2)c2ccc(C(F)(F)F)c(=O)[nH]2)C1` [Example 1-63, 6-{(E)-1-[4-(Cyclopropylsulfonyl)phenyl]-2-[(1S)-3-oxocyclopentyl]ethenyl}-3-(trifluoromethyl)pyridin-2(1H)-one] returned an EC50 of 500 to 3000 nM. The figure for `CSc1ccc(/C(=C\[C@H]2CCC(=O)C2)c2ccc(C(C)C)c(=O)[nH]2)cc1` [Example 1-64, 6-{(E)-1-[4-(Methylsulfanyl)phenyl]-2-[(1S)-3-oxocyclopentyl]ethenyl}-3-(propan-2-yl)pyridin-2(1H)-one] is 10 to 500 nM; for `CSc1ccc(/C(=C\[C@H]2CCC(=O)C2)c2ccc(C3CC3)c(=O)[nH]2)cc1` [Example 1-65, 3-Cyclopropyl-6-{(E)-1-[4-(methylsulfanyl)phenyl]-2-[(1S)-3-oxocyclopentyl]ethenyl}pyridin-2(1H)-one] it is 10 to 500 nM. The figure for `CCN(CC)CCCOc1ccc(/C(=C\[C@H]2CCC(=O)C2)c2ccc(C3CC3)c(=O)[nH]2)cc1` [Example 1-66, 3-Cyclopropyl-6-{(E)-1-{4-[3-(diethylamino)propoxy]phenyl}-2-[(1S)-3-oxocyclopentyl]ethenyl}pyridin-2(1H)-one] is 500 to 3000 nM. To `CSc1ccc(/C(=C\[C@H]2CCC(=O)C2)c2ccc(C)c(=O)[nH]2)cc1Cl` [Example 1-67, 6-{(E)-1-[3-Chloro-4-(methylsulfanyl)phenyl]-2-[(1S)-3-oxocyclopentyl]ethenyl}-3-methylpyridin-2(1H)-one] belongs 10 to 500 nM; to `Cc1ccc(/C(=C/[C@H]2CCC(=O)C2)c2ccc(S(C)(=O)=O)c(Cl)c2)[nH]c1=O` [Example 1-68, 6-{(E)-1-[3-Chloro-4-(methylsulfonyl)phenyl]-2-[(1S)-3-oxocyclopentyl]ethenyl}-3-methylpyridin-2(1H)-one], 500 to 3000 nM; to `CCc1ccc(/C(=C/[C@H]2CCC(=O)C2)c2ccc(SC)c(Cl)c2)[nH]c1=O` [Example 1-69, 6-{(E)-1-[3-Chloro-4-(methylsulfanyl)phenyl]-2-[(1S)-3-oxocyclopentyl]ethenyl}-3-ethylpyridin-2(1H)-one], 10 to 500 nM. The compound `CCc1ccc(/C(=C/[C@H]2CCC(=O)C2)c2ccc(S(C)(=O)=O)c(Cl)c2)[nH]c1=O` [Example 1-70, 6-{(E)-1-[3-Chloro-4-(methylsulfonyl)phenyl]-2-[(1S)-3-oxocyclopentyl]ethenyl}-3-ethylpyridin-2(1H)-one] came in with an EC50 of 10 to 500 nM. To `CSc1ccc(/C(=C\[C@H]2CCC(=O)C2)c2ccc(C3CC3)c(=O)[nH]2)cc1Cl` [Example 1-71, 6-{(E)-1-[3-Chloro-4-(methylsulfanyl)phenyl]-2-[(1S)-3-oxocyclopentyl]ethenyl}-3-cyclopropylpyridin-2(1H)-one] belongs 10 to 500 nM; to `CS(=O)(=O)c1ccc(/C(=C\[C@H]2CCC(=O)C2)c2ccc(C3CC3)c(=O)[nH]2)cc1Cl` [Example 1-72, 6-{(E)-1-[3-Chloro-4-(methylsulfonyl)phenyl]-2-[(1S)-3-oxocyclopentyl]ethenyl}-3-cyclopropylpyridin-2(1H)-one], 10 to 500 nM. The compound `Cc1ccc(/C(=C/[C@H]2CCC(=O)C2)c2ccc(SCCCO)c(Cl)c2)[nH]c1=O` [Example 1-73, 6-{(E)-1-{3-Chloro-4-[(3-hydroxypropyl)sulfanyl]phenyl}-2-[(1S)-3-oxocyclopentyl]ethenyl}-3-methylpyridin-2(1H)-one] yielded an EC50 of 10 to 500 nM. Compound `Cc1ccc(/C(=C/[C@H]2CCC(=O)C2)c2ccc(S(=O)(=O)CCCO)c(Cl)c2)[nH]c1=O` [Example 1-74, 6-{(E)-1-{3-Chloro-4-[(3-hydroxypropyl)sulfonyl]phenyl}-2-[(1S)-3-oxocyclopentyl]ethenyl}-3-methylpyridin-2(1H)-one] gave an EC50 of 500 to 3000 nM. To `CCc1ccc(/C(=C/[C@H]2CCC(=O)C2)c2ccc(SCCCO)c(Cl)c2)[nH]c1=O` [Example 1-75, 6-{(E)-1-{3-Chloro-4-[(3-hydroxypropyl)sulfanyl]phenyl}-2-[(1S)-3-oxocyclopentyl]ethenyl}-3-ethylpyridin-2(1H)-one] belongs 10 to 500 nM; to `CCc1ccc(/C(=C/[C@H]2CCC(=O)C2)c2ccc(S(=O)(=O)CCCO)c(Cl)c2)[nH]c1=O` [Example 1-76, 6-{(E)-1-{3-Chloro-4-[(3-hydroxypropyl)sulfonyl]phenyl}-2-[(1S)-3-oxocyclopentyl]ethenyl}-3-ethylpyridin-2(1H)-one], 10 to 500 nM. To `CCc1ccc(/C(=C/[C@H]2CCC(=O)C2)c2ccc(SCCCN(CC)CC)c(Cl)c2)[nH]c1=O` [Example 1-77, 6-{(E)-1-(3-Chloro-4-{[3-(diethylamino)propyl]sulfanyl}phenyl)-2-[(1S)-3-oxocyclopentyl]ethenyl}-3-ethylpyridin-2(1H)-one] belongs 10 to 500 nM.
